In US10443054B2, “Methods for identifying and treating invasive/metastatic breast cancers” (Massachusetts Institute of Technology, priority 2016, dated 2019):

What was measured:
[1] = system: LM2 cells; assay: Extravasation (experimental lung) metastasis assay, tail vein injection; assay type: in vivo, mice; conditions: LM2 cells stably expressing shRNA injected via tail vein, 28 days; vs Ctrl-shRNA
Procedure: For the experimental lung metastasis assay, 5×10^4 cells in 100 μl of Hank's Balanced Salt Solution were injected into the lateral tail vein of 6- to 8-week-old female NOD/SCID/IL2RV-null mice. The mice were sacrificed 28 days post-injection and lungs were inflated with 3.8% formaldehyde imaged with a fluorescence microscope and subsequently fixed overnight with 3.8% formaldehyde. ZsGreen-positive foci were counted in the left pulmonary lobe using ImageJ and counts were manually curated as needed.

[2] = system: MDA-MB-231 cells; assay: Inverted invasion assay through matrigel towards EGF; conditions: nuclei of invading cells above 40 μm

Compound: Lpd-shRNA2: shRNA targeting human Lpd, TTCCCATACTTTGCAATGCGG
- number of ZsGreen-positive metastatic foci in the left pulmonary lobe [1]: not significant

Compound: Cc1ccc(NC(=O)c2ccc(CN3CCN(C)CC3)cc2)cc1Nc1nccc(-c2cccnc2)n1 [ST1571, STI-571]
- breast cancer cell invasiveness towards EGF ([2]; MDA-MB-231, Dasatinib 10 nM, STI571 10 μM, 72 hours vs DMSO): impaired

Compound: CNC(=O)[C@H](Cc1c[nH]c2ccccc12)NC(=O)[C@@H](CC(=O)NO)CC(C)C [MMP inhibitor, GM6001]
- invasion of Lpd overexpressing cells ([2]; MDA-MB-231 expressing GFP-Lpd, 10 μM GM6001 vs DMSO): reduced invasion
- invasion of GFP expressing control cells ([2]; MDA-MB-231 expressing GFP, 10 μM GM6001 vs DMSO): reduced invasion
